# Source: patent publication US20260223844A1, “METHODS AND COMPOSITIONS FOR ALTERING METABOLITES IN HOP PLANTS” (Impello Biosciences, Inc., priority 2023, published 2026)
# Key:
# Format in all cases: in vivo, Humulus lupulus
# [1] = system: Cashmere Hops; assay: Bitter acids analysis of treated hop plants, Example 2 (HPLC, modified EBC 7.8); details: MDJ foliar spray 1 mM or 5 mM vs untreated control
# Description: (§1) Hop plants were treated with illustrative elicitor compositions of the disclosure to determine the effect of treatment on hop terpene content. The hop cultivar was Cashmere Hops. The treatments were as follows: Control (“CK2”)—Untreated control; TR1—1 mM MDJ Foliar Spray: TR2—5 mM MDJ Foliar Spray.
# (§2) Harvested hops were analyzed for total oil, beta acid, alpha acid, terpene, and thiol content. Total oil analysis was performed according to Analytica EBC Method 7.10, employing steam distillation. Alpha/beta/iso-alpha acid analysis was performed using HPLC, employing a modified version of Analytica EBC Method 7.8. Terpene analysis was performed according to Analytica EBC Method 7.12, employing Capillary Gas Chromatography Flame Ionization Detection. Thiol composition was analyzed via gas chromatography with sulfur chemiluminescence detector (GC-SCD).
# [2] = system: Cashmere Hops; assay: Terpene analysis of treated hop plants, Example 2 (EBC 7.12, GC-FID); details: 5 mM MDJ foliar spray vs control
# Description: as §1, §2
# [3] = system: CTZ hop plants; assay: Total oil analysis of treated hop plants, Example 4
# Description: (§3) Hop plants were treated with illustrative elicitor compositions of the disclosure to determine the effect of treatment on hop bitter acid and terpene content. The hop cultivar was CTZ, also known as Columbus, Tomahawk, or Zeus, three trade names owned by various private corporations for the same variety of hop. The treatments were as follows: 1 mM, 5 mM, and 10 mM MDJ Foliar Spray. Harvested hops were analyzed for total oil, beta acid, alpha acid, and terpene content. Total oil and terpene analysis was performed according to a modified version of Analytica EBC Method 7.12, employing Capillary Gas Chromatography Flame Ionization Detection. Plants were measured in triplicate from each treatment group; results represent the average of three samples. Alpha/beta/iso-alpha acid analysis was performed using HPLC, employing a modified version of Analytica EBC Method 7.8.
# [4] = system: CTZ hop plants; assay: Alpha/beta acid analysis of treated hop plants, Example 4 (HPLC, modified EBC 7.8)
# Description: as §3
# [5] = system: CTZ hop plants; assay: Terpene analysis of treated hop plants, Example 4 (modified EBC 7.12, GC-FID); details: % of overall terpene content; for Terpene content: Geranyl acetate 1*: (2E) isomer; for Terpene content: Geranyl acetate 2**: (2Z) isomer; for Terpene content: Nerolidol 1*: (E) isomer; for Terpene content: Nerolidol 2**: (Z) isomer
# Description: as §3
structure (smiles),measurement,setting,value
"CCCCCC1C(=O)CCC1CC(=O)OC (stereo not drawn) [MDJ, methyl dihydrojasmonate]",content of the alpha acid analogue cohumulone,[1],decreased
same,beta acid content,[1]; especially at 5 mM,statistically significant increase
same,caryophyllene content,[2],increased
same,caryophyllene oxide content,[2],decreased
same,citral content,[2],decreased
same,farnesene content,[2],increased
same,geraniol content,[2],increased
same,humulene content,[2],increased
same,methyl heptanoate content,[2],decreased
same,methyl laurate content,[2],decreased
same,methyl octanoate content,[2],increased
same,methyl thiohexanoate content,[2],increased
same,myrcene content,[2],decreased
same,nerolidol content,[2],increased
same,ocimene content,[2],increased
same,q-pinene content,[2],increased
same,β-pinene content,[2],decreased
same,Total oil,[3]; 1 mM MDJ foliar spray,1.43 mL/100 g
same,Total oil,[3]; 5 mM MDJ foliar spray,2.22 mL/100 g
same,Total oil,[3]; 10 mM MDJ foliar spray,1.72 mL/100 g
same,Alpha Acids,[4]; 1 mM MDJ foliar spray,4.83%
same,Beta Acids,[4]; 1 mM MDJ foliar spray,3.53%
same,Cohumulone,[4]; 1 mM MDJ foliar spray,21.43 % alpha
same,Colupulone,[4]; 1 mM MDJ foliar spray,43.53 % beta
same,Alpha Acids,[4]; 5 mM MDJ foliar spray,6.10%
same,Beta Acids,[4]; 5 mM MDJ foliar spray,3.83%
same,Cohumulone,[4]; 5 mM MDJ foliar spray,23.37 % alpha
same,Colupulone,[4]; 5 mM MDJ foliar spray,49.3 % beta
same,Alpha Acids,[4]; 10 mM MDJ foliar spray,7.80%
same,Beta Acids,[4]; 10 mM MDJ foliar spray,4.23%
same,Cohumulone,[4]; 10 mM MDJ foliar spray,26.03 % alpha
same,Colupulone,[4]; 10 mM MDJ foliar spray,43.47 % beta
same,"Colupolone content, as a percentage of overall beta acids","[4]; 1, 5, 10 mM MDJ foliar spray",highest at 5 mM treatment
same,alpha acid content,"[4]; 1, 5, 10 mM MDJ foliar spray",dose-dependent increase
same,beta acid content,"[4]; 1, 5, 10 mM MDJ foliar spray",dose-dependent increase
same,Cohumulone content as a percentage of overall alpha acids,"[4]; with increasing MDJ concentration (1, 5, 10 mM)",increased
same,Terpene content: 2-Undecanone,[5]; 1 mM MDJ foliar spray,0.00%
same,Terpene content: Alpha-pinene,[5]; 1 mM MDJ foliar spray,0.37%
same,Terpene content: Beta-ionone,[5]; 1 mM MDJ foliar spray,0.08%
same,Terpene content: Beta-pinene,[5]; 1 mM MDJ foliar spray,0.36%
same,Terpene content: Caryophyllene,[5]; 1 mM MDJ foliar spray,16.6%
same,Terpene content: Caryophyllene oxide,[5]; 1 mM MDJ foliar spray,0.12%
same,Terpene content: Citral,[5]; 1 mM MDJ foliar spray,0.32%
same,Terpene content: Citronellene,[5]; 1 mM MDJ foliar spray,0.42%
same,Terpene content: Citronellol,[5]; 1 mM MDJ foliar spray,0.00%
same,Terpene content: Farnesene,[5]; 1 mM MDJ foliar spray,0.00%
same,Terpene content: Geraniol,[5]; 1 mM MDJ foliar spray,0.52%
same,Terpene content: Humulene,[5]; 1 mM MDJ foliar spray,38.7%
same,Terpene content: Limonene,[5]; 1 mM MDJ foliar spray,0.10%
same,Terpene content: Linalool,[5]; 1 mM MDJ foliar spray,0.21%
same,Terpene content: Methyl Heptanoate,[5]; 1 mM MDJ foliar spray,0.06%
same,Terpene content: Methyl Laurate,[5]; 1 mM MDJ foliar spray,0.39%
same,Terpene content: Methyl Octanoate,[5]; 1 mM MDJ foliar spray,0.44%
same,Terpene content: Methyl thiohexanoate,[5]; 1 mM MDJ foliar spray,0.05%
same,Terpene content: Myrcene,[5]; 1 mM MDJ foliar spray,27.0%
same,Terpene content: Nerol,[5]; 1 mM MDJ foliar spray,0.03%
same,Terpene content: Ocimene,[5]; 1 mM MDJ foliar spray,0.39%
same,Terpene content: Terpinolene,[5]; 1 mM MDJ foliar spray,0.25%
same,Terpene content: Unidentified,[5]; 1 mM MDJ foliar spray,13.0%
same,Terpene content: Geranyl acetate 1*,[5]; 1 mM MDJ foliar spray,0.38%
same,Terpene content: Geranyl acetate 2**,[5]; 1 mM MDJ foliar spray,0.07%
same,Terpene content: Nerolidol 1*,[5]; 1 mM MDJ foliar spray,0.09%
same,Terpene content: Nerolidol 2**,[5]; 1 mM MDJ foliar spray,0.06%
same,Terpene content: 2-Undecanone,[5]; 5 mM MDJ foliar spray,0.01%
same,Terpene content: Alpha-pinene,[5]; 5 mM MDJ foliar spray,0.14%
same,Terpene content: Beta-ionone,[5]; 5 mM MDJ foliar spray,0.59%
same,Terpene content: Beta-pinene,[5]; 5 mM MDJ foliar spray,0.35%
same,Terpene content: Caryophyllene,[5]; 5 mM MDJ foliar spray,13.4%
same,Terpene content: Caryophyllene oxide,[5]; 5 mM MDJ foliar spray,0.04%
same,Terpene content: Citral,[5]; 5 mM MDJ foliar spray,0.11%
same,Terpene content: Citronellene,[5]; 5 mM MDJ foliar spray,0.42%
same,Terpene content: Citronellol,[5]; 5 mM MDJ foliar spray,0.00%
same,Terpene content: Farnesene,[5]; 5 mM MDJ foliar spray,0.03%
same,Terpene content: Geraniol,[5]; 5 mM MDJ foliar spray,0.78%
same,Terpene content: Humulene,[5]; 5 mM MDJ foliar spray,27.3%
same,Terpene content: Limonene,[5]; 5 mM MDJ foliar spray,0.09%
same,Terpene content: Linalool,[5]; 5 mM MDJ foliar spray,0.31%
same,Terpene content: Methyl Heptanoate,[5]; 5 mM MDJ foliar spray,0.05%
same,Terpene content: Methyl Laurate,[5]; 5 mM MDJ foliar spray,0.11%
same,Terpene content: Methyl Octanoate,[5]; 5 mM MDJ foliar spray,0.31%
same,Terpene content: Methyl thiohexanoate,[5]; 5 mM MDJ foliar spray,0.05%
same,Terpene content: Myrcene,[5]; 5 mM MDJ foliar spray,39.0%
same,Terpene content: Nerol,[5]; 5 mM MDJ foliar spray,0.00%
same,Terpene content: Ocimene,[5]; 5 mM MDJ foliar spray,0.28%
same,Terpene content: Terpinolene,[5]; 5 mM MDJ foliar spray,0.11%
same,Terpene content: Unidentified,[5]; 5 mM MDJ foliar spray,15.7%
same,Terpene content: Geranyl acetate 1*,[5]; 5 mM MDJ foliar spray,0.43%
same,Terpene content: Geranyl acetate 2**,[5]; 5 mM MDJ foliar spray,0.11%
same,Terpene content: Nerolidol 1*,[5]; 5 mM MDJ foliar spray,0.14%
same,Terpene content: Nerolidol 2**,[5]; 5 mM MDJ foliar spray,0.12%
same,Terpene content: 2-Undecanone,[5]; 10 mM MDJ foliar spray,0.07%
same,Terpene content: Alpha-pinene,[5]; 10 mM MDJ foliar spray,0.11%
same,Terpene content: Beta-ionone,[5]; 10 mM MDJ foliar spray,0.52%
same,Terpene content: Beta-pinene,[5]; 10 mM MDJ foliar spray,0.54%
same,Terpene content: Caryophyllene,[5]; 10 mM MDJ foliar spray,13.2%
same,Terpene content: Caryophyllene oxide,[5]; 10 mM MDJ foliar spray,0.07%
same,Terpene content: Citral,[5]; 10 mM MDJ foliar spray,0.20%
same,Terpene content: Citronellene,[5]; 10 mM MDJ foliar spray,0.39%
same,Terpene content: Citronellol,[5]; 10 mM MDJ foliar spray,0.00%
same,Terpene content: Farnesene,[5]; 10 mM MDJ foliar spray,0.02%
same,Terpene content: Geraniol,[5]; 10 mM MDJ foliar spray,0.82%
same,Terpene content: Humulene,[5]; 10 mM MDJ foliar spray,24.7%
same,Terpene content: Limonene,[5]; 10 mM MDJ foliar spray,0.09%
same,Terpene content: Linalool,[5]; 10 mM MDJ foliar spray,0.31%
same,Terpene content: Methyl Heptanoate,[5]; 10 mM MDJ foliar spray,0.06%
same,Terpene content: Methyl Laurate,[5]; 10 mM MDJ foliar spray,0.19%
same,Terpene content: Methyl Octanoate,[5]; 10 mM MDJ foliar spray,0.24%
same,Terpene content: Methyl thiohexanoate,[5]; 10 mM MDJ foliar spray,0.02%
same,Terpene content: Myrcene,[5]; 10 mM MDJ foliar spray,39.6%
same,Terpene content: Nerol,[5]; 10 mM MDJ foliar spray,0.02%
same,Terpene content: Ocimene,[5]; 10 mM MDJ foliar spray,0.16%
same,Terpene content: Terpinolene,[5]; 10 mM MDJ foliar spray,0.05%
same,Terpene content: Unidentified,[5]; 10 mM MDJ foliar spray,17.8%
same,Terpene content: Geranyl acetate 1*,[5]; 10 mM MDJ foliar spray,0.38%
same,Terpene content: Geranyl acetate 2**,[5]; 10 mM MDJ foliar spray,0.09%
same,Terpene content: Nerolidol 1*,[5]; 10 mM MDJ foliar spray,0.17%
same,Terpene content: Nerolidol 2**,[5]; 10 mM MDJ foliar spray,0.22%
